Some results are limits rather than exact numbers.

In one assay the test system is Bel-7402. The assay is described as follows: Antiproliferative activity against human Bel-7402 cells assessed as reduction in cell viability incubated for 72 hrs by MTT assay. As to conditions: Bel-7402, 72 h. In kind it is functional, cell-based.
The target in the next assay is T1, 14-3-3 protein eta (Homo sapiens, UniProt Q04917).
T1 sequence (Q04917 whole entry): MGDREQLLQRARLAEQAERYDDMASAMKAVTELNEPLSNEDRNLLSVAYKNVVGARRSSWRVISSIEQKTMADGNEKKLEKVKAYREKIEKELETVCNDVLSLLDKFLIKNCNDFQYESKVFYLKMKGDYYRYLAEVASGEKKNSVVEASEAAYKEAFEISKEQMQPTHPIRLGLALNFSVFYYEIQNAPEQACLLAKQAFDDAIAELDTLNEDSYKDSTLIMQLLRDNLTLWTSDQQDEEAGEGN
The assay is described as follows: Binding affinity to 14-3-3 eta (unknown origin) assessed as dissociation constant by biolayer interferometry assay.

Another assay concerns Bel7402/5-FU. In words: Antiproliferative activity against human BEL-7402/5-FU cells overexpressing 14-3-3 eta assessed as reduction in cell viability incubated for 72 hrs by MTT assay. In kind it is functional, cell-based. (Formazan colour is commonly taken as a measure of viable cells.)
A further assay has as its system Hep 3B2. The assay is described as follows: Antiproliferative activity against human Hep3B cells assessed as reduction in cell viability incubated for 72 hrs by MTT assay. In kind it is functional, cell-based.
A further assay concerns SNU-387. In words: Antiproliferative activity against human SNU-387 cells assessed as reduction in cell viability incubated for 72 hrs by MTT assay. It is filed as functional, cell-based. As to conditions: SNU-387, 72 h.
For a further assay, the system named is SMMC-7721. In words: Antiproliferative activity against human SMMC-7721 cells assessed as reduction in cell viability incubated for 72 hrs by MTT assay. In kind it is functional, cell-based. The note with it: SMMC-7721, 72 h.
For the next assay, the system named is HepG2. The assay is described as follows: Antiproliferative activity against human HepG2 cells assessed as reduction in cell viability incubated for 72 hrs by MTT assay. It is filed as functional, cell-based. The note with it: HepG2, 72 h.

In the case of `COc1cccc(CNCc2c(C(=O)O)n(Cc3ccccc3F)c3cc(C(C)C)ccc23)c1`, the IC50 came to 5.59 µM in the assay on Bel-7402; 5.21 µM with Bel7402/5-FU; 5.19 µM in the assay on Hep 3B2; 6.09 µM in the assay on SNU-387; 3.23 µM in the assay on SMMC-7721; 3.3 µM in the assay with HepG2. Moreover, the dissociation constant Kd on 14-3-3 protein eta worked out at 37 µM.

With `O=[As][As+](=O)[O-]` (centres undefined) [ARSENIC TRIOXIDE], at 14-3-3 protein eta, the Kd stood at 110 µM.

In the case of `COc1cccc(CNCc2c(C(=O)O)n(Cc3ccccc3)c3ccccc23)c1`, the IC50 in the assay with Bel-7402 is greater than 50 µM.

In the case of `COc1ccc(Cn2c(C(=O)O)c(CNC(=O)c3cccc(OC)c3)c3ccc(C)cc32)cc1`, the IC50 in the assay on Bel-7402 was greater than 50 µM. The Kd on 14-3-3 protein eta turned out to be 56 µM.

`COc1ccc(Cn2c(C(=O)O)c(CNCc3cc(OC)ccc3O)c3ccc(C)cc32)cc1`: in the assay on Bel-7402, the IC50 was greater than 50 µM.

Consider `COc1cccc(CNCc2c(C(=O)O)n(Cc3ccccc3F)c3ccccc23)c1`, for which the IC50 in the assay with Bel-7402 is greater than 50 µM.

With `COc1cccc(CNCc2c(C(=O)O)n(Cc3ccc(O)cc3)c3ccccc23)c1`, the concentration for half-maximal inhibition (IC50) with Bel-7402 is greater than 50 µM.

With `COc1ccc(Cn2c(C(=O)O)c(CNCc3cccc(OC)c3)c3ccccc32)cc1`, the IC50 with Bel-7402 was 52.9 µM.

On to `COc1ccc(Cn2c(C(=O)O)c(CNCc3cccc(OC)c3)c3ccc(C)cc32)cc1`, for which, in the assay with Bel-7402, the IC50 turned out to be 9.83 µM.

As for `COc1cccc(CNCc2c(C(=O)O)n(Cc3ccc(C)cc3)c3ccccc23)c1`, the IC50 came to 21.5 µM in the assay with Bel-7402; 9.33 µM in the assay on Bel7402/5-FU; 14.5 µM in the assay on Hep 3B2; 14.3 µM in the assay on SNU-387; 6.27 µM in the assay with SMMC-7721; 14 µM with HepG2.

With `COc1ccc(Cn2c(C(=O)O)c(CNCc3ccc(O)c(OC)c3)c3ccccc32)cc1`, the IC50 in the assay on Bel-7402 is greater than 50 µM. In addition, on 14-3-3 protein eta, the equilibrium dissociation constant (Kd) came to 140 µM.

With `COc1cccc(CNCc2c(C(=O)O)n(Cc3ccc(O)cc3)c3cc(C(C)C)ccc23)c1`, the IC50 with Bel-7402 is 7.08 µM; in the assay on Bel7402/5-FU, greater than 50 µM; in the assay with Hep 3B2, 5.34 µM; in the assay on SNU-387, 5.13 µM; in the assay with SMMC-7721 it was 3.73 µM; in the assay on HepG2, 1.63 µM. The dissociation constant (Kd) on 14-3-3 protein eta was found to be 74 µM.

For `COc1ccc(Cn2c(C(=O)O)c(CNCc3cccc(OC)c3)c3ccc(C(F)(F)F)cc32)cc1`, in the assay with Bel-7402, the IC50 is greater than 50 µM.

As for `COc1ccc(Cn2c(C(=O)O)c(CN(C)Cc3cccc(OC)c3)c3ccc(C)cc32)cc1`, the half-maximal inhibitory concentration (IC50) in the assay on Bel-7402 came to 33 µM; in the assay with Bel7402/5-FU, 7.47 µM; in the assay on Hep 3B2, 14.5 µM; in the assay on SNU-387 it was 20.1 µM; in the assay on SMMC-7721 it was 11 µM; in the assay with HepG2, 15.4 µM. The Kd at 14-3-3 protein eta was greater than 200 µM.

In the case of `COc1ccc(Cn2c(C(=O)O)c(CNCc3ccc(O)c(OC)c3)c3ccc(C)cc32)cc1`, the IC50 in the assay on Bel-7402 was 13.3 µM; with Bel7402/5-FU, greater than 50 µM; in the assay on Hep 3B2 it was 8.2 µM; with SNU-387, 6.15 µM; in the assay with SMMC-7721, 7.73 µM; in the assay with HepG2, 3.74 µM. Besides, the Kd on 14-3-3 protein eta was greater than 200 µM.

Turning to `COc1ccc(Cn2c(C(=O)O)c(CNCc3cccc(O)c3)c3ccc(C)cc32)cc1`, the IC50 in the assay with Bel-7402 was 19.8 µM; with Bel7402/5-FU it was greater than 50 µM; in the assay with Hep 3B2, 11.8 µM; in the assay with SNU-387, 9.91 µM; in the assay with SMMC-7721, 34.8 µM; with HepG2, 4.52 µM.

Regarding `COc1cccc(CNCc2c(C(=O)O)n(Cc3ccc(C)cc3)c3cc(C)ccc23)c1`, the IC50 in the assay on Bel-7402 amounted to 5.67 µM; with Bel7402/5-FU, 7.31 µM; with Hep 3B2, 6.33 µM; with SNU-387, 5.29 µM; in the assay with SMMC-7721, 3.44 µM; with HepG2 it was 5.05 µM.

As to `COc1ccc(Cn2c(C(=O)O)c(CNCc3ccc(O)c(OC)c3)c3ccc(C(C)C)cc32)cc1`, the concentration for half-maximal inhibition (IC50) came out at 8.38 µM in the assay on Bel-7402; 7.9 µM with Bel7402/5-FU; 4.71 µM in the assay with Hep 3B2; 5.4 µM in the assay with SNU-387; 5.83 µM in the assay with SMMC-7721; 3.66 µM in the assay on HepG2.

Consider `COc1cccc(CNCc2c(C(=O)O)n(Cc3ccccc3F)c3cc(C)ccc23)c1`, for which the IC50 in the assay on Bel-7402 was greater than 50 µM. Moreover, the Kd at 14-3-3 protein eta is greater than 200 µM.

Turning to `COc1cccc(CNCc2c(C(=O)O)n(Cc3ccc(O)cc3)c3cc(C)ccc23)c1`, the IC50 in the assay with Bel-7402 is greater than 50 µM.

For `COc1cccc(CNCc2c(C(=O)O)n(Cc3ccc(F)cc3)c3ccccc23)c1`, in the assay on Bel-7402, the IC50 was greater than 50 µM. For the same compound, on 14-3-3 protein eta, the Kd came to 160 µM.

As to `COc1ccc(Cn2c(C(=O)O)c(CNCc3cccc(O)c3)c3ccc(C(C)C)cc32)cc1`, the 50% inhibitory concentration (IC50) with Bel-7402 was 9.27 µM; with Bel7402/5-FU it was 15.2 µM; with Hep 3B2, 6.6 µM; in the assay with SNU-387, 6.86 µM; in the assay with SMMC-7721, 5.03 µM; with HepG2, 4.92 µM. For the same compound, the Kd at 14-3-3 protein eta turned out to be 22 µM.

As for `COc1cccc(CNCc2c(C(=O)O)n(Cc3ccc(N)cc3)c3cc(C(C)C)ccc23)c1`, the IC50 with Bel-7402 was 9.57 µM; in the assay with Bel7402/5-FU, greater than 50 µM; with Hep 3B2, 11.2 µM; in the assay on SNU-387 it was 9.01 µM; in the assay on SMMC-7721 it was 11.3 µM; in the assay with HepG2, 7.4 µM.

As to `COc1cccc(CNCc2c(C(=O)O)n(Cc3ccccc3)c3cc(C(C)C)ccc23)c1`, the half-maximal inhibitory concentration (IC50) in the assay on Bel-7402 stood at 5.9 µM; in the assay on Bel7402/5-FU, 5.92 µM; with Hep 3B2 it was 4.11 µM; with SNU-387, 5.09 µM; in the assay with SMMC-7721 it was 3.53 µM; with HepG2 it was 3.18 µM. In addition, the Kd on 14-3-3 protein eta amounted to 55 µM.

Take `CNC(=O)c1cc(Oc2ccc(NC(=O)Nc3ccc(Cl)c(C(F)(F)F)c3)cc2)ccn1` [SORAFENIB]: the IC50 in the assay on Bel-7402 was found to be 6.03 µM; with Bel7402/5-FU it was 13.3 µM; in the assay on Hep 3B2, 5.49 µM; in the assay on SNU-387 it was 12.3 µM; in the assay with SMMC-7721, 4.88 µM; with HepG2 it was 3.3 µM.

As to `COc1ccc(Cn2c(C(=O)O)c(CNCc3cccc(OC)c3)c3ccc(C(F)F)cc32)cc1`, in the assay on Bel-7402, the IC50 was greater than 50 µM.

Take `COc1cccc(CNCc2c(C(=O)O)n(Cc3ccccc3)c3cc(C)ccc23)c1`: the concentration for half-maximal inhibition (IC50) in the assay with Bel-7402 worked out at 12.5 µM; with Bel7402/5-FU, 12.1 µM; in the assay on Hep 3B2, 7.31 µM; in the assay on SNU-387 it was 8.17 µM; in the assay with SMMC-7721, 4.72 µM; with HepG2, 5.21 µM.

On to `COc1ccc(Cn2c(C(=O)O)c(CNCc3cccc(O)c3)c3ccccc32)cc1`, for which, in the assay with Bel-7402, the half-inhibitory concentration (IC50) was greater than 50 µM.

Turning to `CCNC(=O)c1c(CNCc2ccc(OC)cc2)c2ccccc2n1Cc1ccc(OC)cc1`, the 50% inhibitory concentration (IC50) in the assay on Bel-7402 was found to be 58.9 µM.

The term IC50 denotes the concentration that gives 50% inhibition. The Kd is a measure of binding affinity in units of concentration.

The values are drawn from ChEMBL document CHEMBL5113390, “Design, synthesis and antitumor evaluation of novel 1H-indole-2-carboxylic acid derivatives targeting 14-3-3η protein” (Eur J Med Chem, 2022).
